In assay [1] the target is T1, cardiac ryanodine receptor (RyR2) (Homo sapiens, UniProt Q92736).
T1 construct: recombinant eGFP-hRyR2, purified from HEK293 cells
As to the kind of experiment: single-channel recording of purified hRyR2 in planar lipid bilayers; association and dissociation rates of block. It counts as biochemical.

The target in assay [2] is T2, Nav1.5 channel (Homo sapiens, UniProt Q14524).
T2 construct: gene SCN5A; recombinant Nav1.5 in HEK293 (H-Flp/Nav1.5) cells
As to the kind of experiment: INa recording, use-dependent block at […] Hz ([…] NU-FL). The class given is cell-based.

Assay [3] concerns the target T2, Nav1.5 channel. The assay is described as follows: INa recording, use-dependent block at […] Hz ([…] QX-FL). It counts as cell-based.
Assay [4] addresses T1, cardiac ryanodine receptor (RyR2). The assay is described as follows: single-channel recording of purified hRyR2 in planar lipid bilayers, +[…] mV, cytosolic to luminal K+ current. The class given is biochemical.

T1 sequence (Q92736 whole entry): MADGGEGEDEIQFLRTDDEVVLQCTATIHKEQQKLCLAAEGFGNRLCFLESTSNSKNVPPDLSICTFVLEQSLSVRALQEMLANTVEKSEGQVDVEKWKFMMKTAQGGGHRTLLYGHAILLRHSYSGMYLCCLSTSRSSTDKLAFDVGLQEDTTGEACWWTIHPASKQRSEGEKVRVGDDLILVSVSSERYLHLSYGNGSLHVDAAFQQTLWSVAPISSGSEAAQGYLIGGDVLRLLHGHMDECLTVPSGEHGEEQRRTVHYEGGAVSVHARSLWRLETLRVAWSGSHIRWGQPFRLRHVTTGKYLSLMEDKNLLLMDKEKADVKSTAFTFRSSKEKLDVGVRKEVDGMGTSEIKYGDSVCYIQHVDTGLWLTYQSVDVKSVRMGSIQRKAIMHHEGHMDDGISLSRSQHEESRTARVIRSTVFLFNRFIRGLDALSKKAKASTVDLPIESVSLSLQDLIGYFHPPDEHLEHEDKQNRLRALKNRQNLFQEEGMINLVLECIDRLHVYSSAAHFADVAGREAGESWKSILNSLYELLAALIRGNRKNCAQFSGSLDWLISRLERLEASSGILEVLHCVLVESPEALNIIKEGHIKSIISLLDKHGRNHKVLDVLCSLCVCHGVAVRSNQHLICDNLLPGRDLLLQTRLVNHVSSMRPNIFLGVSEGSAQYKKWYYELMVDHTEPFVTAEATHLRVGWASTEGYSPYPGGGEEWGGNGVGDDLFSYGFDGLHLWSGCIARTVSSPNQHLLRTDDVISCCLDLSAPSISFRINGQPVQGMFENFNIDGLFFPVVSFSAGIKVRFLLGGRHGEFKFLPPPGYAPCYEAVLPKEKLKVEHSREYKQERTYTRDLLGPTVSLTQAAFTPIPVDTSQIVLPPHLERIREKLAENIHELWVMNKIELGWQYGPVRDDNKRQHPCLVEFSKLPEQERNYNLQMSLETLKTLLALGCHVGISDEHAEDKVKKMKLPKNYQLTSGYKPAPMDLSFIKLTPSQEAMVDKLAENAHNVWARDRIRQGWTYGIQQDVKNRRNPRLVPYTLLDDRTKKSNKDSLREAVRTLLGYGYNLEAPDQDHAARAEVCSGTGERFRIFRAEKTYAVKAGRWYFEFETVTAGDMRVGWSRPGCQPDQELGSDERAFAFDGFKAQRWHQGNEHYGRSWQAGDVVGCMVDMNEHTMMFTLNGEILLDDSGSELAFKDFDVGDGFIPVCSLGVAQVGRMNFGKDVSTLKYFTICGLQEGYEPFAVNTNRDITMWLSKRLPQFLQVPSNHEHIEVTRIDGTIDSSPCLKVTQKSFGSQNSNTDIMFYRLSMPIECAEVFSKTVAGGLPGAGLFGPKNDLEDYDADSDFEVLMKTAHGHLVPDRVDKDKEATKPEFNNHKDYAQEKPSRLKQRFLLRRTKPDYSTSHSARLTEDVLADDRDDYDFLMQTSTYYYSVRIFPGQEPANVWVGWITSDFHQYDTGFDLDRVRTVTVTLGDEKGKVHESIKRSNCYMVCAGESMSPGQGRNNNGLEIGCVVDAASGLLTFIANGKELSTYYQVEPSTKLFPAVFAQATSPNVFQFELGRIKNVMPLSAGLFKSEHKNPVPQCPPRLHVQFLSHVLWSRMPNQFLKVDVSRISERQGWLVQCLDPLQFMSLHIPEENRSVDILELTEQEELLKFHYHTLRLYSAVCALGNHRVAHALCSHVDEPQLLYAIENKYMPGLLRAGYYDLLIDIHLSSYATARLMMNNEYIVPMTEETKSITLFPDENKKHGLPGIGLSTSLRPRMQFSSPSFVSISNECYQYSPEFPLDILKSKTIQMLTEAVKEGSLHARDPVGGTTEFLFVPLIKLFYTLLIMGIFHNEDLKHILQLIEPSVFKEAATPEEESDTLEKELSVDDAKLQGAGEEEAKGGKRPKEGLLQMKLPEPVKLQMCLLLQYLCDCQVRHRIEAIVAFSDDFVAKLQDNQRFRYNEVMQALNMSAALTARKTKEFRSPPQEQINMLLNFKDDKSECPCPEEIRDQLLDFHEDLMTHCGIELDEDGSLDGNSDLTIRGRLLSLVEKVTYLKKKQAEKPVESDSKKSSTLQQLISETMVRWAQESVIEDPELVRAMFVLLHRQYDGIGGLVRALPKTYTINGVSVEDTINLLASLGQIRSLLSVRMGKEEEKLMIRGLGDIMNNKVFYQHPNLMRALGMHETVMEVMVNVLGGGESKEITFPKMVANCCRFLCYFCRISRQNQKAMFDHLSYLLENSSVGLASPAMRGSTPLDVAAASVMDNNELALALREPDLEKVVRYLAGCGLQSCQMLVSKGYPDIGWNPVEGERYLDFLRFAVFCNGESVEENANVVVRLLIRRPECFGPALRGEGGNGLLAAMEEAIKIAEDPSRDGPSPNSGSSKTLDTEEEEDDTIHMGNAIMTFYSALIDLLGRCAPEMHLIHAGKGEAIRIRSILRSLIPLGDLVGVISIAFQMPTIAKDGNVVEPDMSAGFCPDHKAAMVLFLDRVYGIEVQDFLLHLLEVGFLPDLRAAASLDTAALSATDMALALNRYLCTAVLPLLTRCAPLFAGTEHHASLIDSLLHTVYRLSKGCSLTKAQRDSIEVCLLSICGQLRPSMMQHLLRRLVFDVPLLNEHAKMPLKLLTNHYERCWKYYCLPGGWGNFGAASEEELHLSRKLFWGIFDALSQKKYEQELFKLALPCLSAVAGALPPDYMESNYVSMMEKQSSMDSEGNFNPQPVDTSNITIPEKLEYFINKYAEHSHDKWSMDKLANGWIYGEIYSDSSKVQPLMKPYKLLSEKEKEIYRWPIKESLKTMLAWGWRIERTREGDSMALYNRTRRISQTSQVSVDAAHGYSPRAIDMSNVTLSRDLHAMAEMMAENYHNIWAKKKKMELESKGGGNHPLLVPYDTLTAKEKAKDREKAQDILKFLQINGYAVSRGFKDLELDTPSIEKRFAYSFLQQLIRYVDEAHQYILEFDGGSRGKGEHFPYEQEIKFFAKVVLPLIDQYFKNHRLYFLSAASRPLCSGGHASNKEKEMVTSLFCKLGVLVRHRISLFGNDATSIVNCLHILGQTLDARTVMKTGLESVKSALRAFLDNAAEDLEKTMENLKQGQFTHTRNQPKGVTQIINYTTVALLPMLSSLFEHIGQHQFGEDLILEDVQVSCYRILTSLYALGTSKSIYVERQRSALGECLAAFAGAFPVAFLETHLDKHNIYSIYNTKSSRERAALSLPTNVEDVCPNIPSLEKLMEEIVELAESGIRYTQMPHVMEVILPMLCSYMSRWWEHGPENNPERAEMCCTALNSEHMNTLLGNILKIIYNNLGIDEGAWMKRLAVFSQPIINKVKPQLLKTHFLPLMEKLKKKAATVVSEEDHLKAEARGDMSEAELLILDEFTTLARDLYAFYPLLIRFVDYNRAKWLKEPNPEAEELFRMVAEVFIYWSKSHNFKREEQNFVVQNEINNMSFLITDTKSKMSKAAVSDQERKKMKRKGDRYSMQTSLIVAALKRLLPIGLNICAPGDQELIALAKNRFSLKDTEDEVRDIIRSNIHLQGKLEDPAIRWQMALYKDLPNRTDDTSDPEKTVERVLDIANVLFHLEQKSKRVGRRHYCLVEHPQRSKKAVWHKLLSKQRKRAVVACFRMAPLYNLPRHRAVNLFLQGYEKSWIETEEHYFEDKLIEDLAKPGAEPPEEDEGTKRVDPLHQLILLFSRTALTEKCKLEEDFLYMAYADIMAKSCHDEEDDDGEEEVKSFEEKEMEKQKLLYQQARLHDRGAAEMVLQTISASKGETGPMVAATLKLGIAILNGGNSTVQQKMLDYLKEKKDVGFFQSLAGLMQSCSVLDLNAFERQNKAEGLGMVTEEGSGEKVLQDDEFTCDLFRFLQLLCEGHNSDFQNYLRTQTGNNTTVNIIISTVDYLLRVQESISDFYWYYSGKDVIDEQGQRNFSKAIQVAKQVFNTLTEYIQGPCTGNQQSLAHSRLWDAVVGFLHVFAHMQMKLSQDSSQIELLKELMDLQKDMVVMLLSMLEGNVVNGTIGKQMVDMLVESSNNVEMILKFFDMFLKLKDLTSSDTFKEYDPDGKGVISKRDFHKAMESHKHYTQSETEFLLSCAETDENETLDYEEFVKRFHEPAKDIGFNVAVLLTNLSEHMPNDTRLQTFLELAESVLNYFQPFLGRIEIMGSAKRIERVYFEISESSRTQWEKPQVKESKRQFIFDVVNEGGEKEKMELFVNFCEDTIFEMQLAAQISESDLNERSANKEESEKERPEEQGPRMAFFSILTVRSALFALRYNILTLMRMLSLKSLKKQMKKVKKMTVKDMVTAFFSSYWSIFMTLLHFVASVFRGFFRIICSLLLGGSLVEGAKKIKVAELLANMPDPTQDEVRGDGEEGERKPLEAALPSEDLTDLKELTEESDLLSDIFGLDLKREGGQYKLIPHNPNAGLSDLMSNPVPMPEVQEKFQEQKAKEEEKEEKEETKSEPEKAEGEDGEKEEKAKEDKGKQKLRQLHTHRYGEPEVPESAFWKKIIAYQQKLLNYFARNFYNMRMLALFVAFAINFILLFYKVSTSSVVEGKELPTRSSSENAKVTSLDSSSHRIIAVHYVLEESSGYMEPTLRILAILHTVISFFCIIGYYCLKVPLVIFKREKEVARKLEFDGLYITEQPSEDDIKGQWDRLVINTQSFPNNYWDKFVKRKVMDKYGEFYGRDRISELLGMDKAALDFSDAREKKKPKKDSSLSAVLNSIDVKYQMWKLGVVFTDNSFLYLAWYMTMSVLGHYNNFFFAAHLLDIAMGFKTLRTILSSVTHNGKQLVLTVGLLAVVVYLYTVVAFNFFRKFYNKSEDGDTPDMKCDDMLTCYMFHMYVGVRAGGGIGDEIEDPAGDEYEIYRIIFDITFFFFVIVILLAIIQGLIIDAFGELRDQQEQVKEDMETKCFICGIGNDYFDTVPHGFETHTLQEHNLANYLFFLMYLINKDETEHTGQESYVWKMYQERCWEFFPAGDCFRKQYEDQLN

Broadly, the kon is a measure of how fast the partners come together. High values mean faster complex formation, low ones slower complex formation. Regarding `O=C(NCCN1CCOCC1)c1cc(OCC(F)(F)F)ccc1OCC(F)(F)F` [NU-FL], the kon in assay [1] is 6.2e+08 ± 5e+07 M⁻¹ s⁻¹. Also, on Nav1.5 channel [2], the “INa recording, use-dependent block at 10 Hz (10 and 100 μM NU-FL)” value is “Use‐dependent block (UDB) of voltage gated Na^+ channel current (INa) by flecainide analogues, NU‐FL and QX‐FL”.

As for `C[N+]1(C)CCCCC1CNC(=O)c1cc(OCC(F)(F)F)ccc1OCC(F)(F)F` (centres unmarked) [QX-FL], the “INa recording, use-dependent block at 10 Hz (10 μM QX-FL)” value at Nav1.5 channel [3] was “Use‐dependent block (UDB) of voltage gated Na^+ channel current (INa) by flecainide analogues, NU‐FL and QX‐FL”. In assay [1], this compound displayed a kon of 9.1e+08 ± 3e+07 M⁻¹ s⁻¹.

For orientation: Kd means the constant that tells how readily two partners part at equilibrium. Turning to `O=C(NCC1CCCCN1)c1cc(OCC(F)(F)F)ccc1OCC(F)(F)F` (centres unmarked) [flecainide], the Kd in assay [4] amounted to 13.1 ± 1.89 µM.

Source of the values: paper PMC4945764, “Effect of flecainide derivatives on sarcoplasmic reticulum calcium release suggests a lack of direct action on the cardiac ryanodine receptor” (British Journal of Pharmacology, 2016).
